Data on 17 molecules can be found in US10562898B2, “Substituted benzenesulfonamides as inhibitors of alpha-4 beta-7 integrin activity” (EA PHARMA CO., LTD., priority 2016, dated 2020).

A value given as a limit tells only on which side of the number the result lay.

The target in the test is T1, α4β1 integrin (Homo sapiens, UniProt P05556+P13612).
T1 construct: a cell line Jurkat, which is known to express α4β1 integrin; endogenous in cells; host or cells: Jurkat (human T cell line)
T1 sequence (P13612 34-1032): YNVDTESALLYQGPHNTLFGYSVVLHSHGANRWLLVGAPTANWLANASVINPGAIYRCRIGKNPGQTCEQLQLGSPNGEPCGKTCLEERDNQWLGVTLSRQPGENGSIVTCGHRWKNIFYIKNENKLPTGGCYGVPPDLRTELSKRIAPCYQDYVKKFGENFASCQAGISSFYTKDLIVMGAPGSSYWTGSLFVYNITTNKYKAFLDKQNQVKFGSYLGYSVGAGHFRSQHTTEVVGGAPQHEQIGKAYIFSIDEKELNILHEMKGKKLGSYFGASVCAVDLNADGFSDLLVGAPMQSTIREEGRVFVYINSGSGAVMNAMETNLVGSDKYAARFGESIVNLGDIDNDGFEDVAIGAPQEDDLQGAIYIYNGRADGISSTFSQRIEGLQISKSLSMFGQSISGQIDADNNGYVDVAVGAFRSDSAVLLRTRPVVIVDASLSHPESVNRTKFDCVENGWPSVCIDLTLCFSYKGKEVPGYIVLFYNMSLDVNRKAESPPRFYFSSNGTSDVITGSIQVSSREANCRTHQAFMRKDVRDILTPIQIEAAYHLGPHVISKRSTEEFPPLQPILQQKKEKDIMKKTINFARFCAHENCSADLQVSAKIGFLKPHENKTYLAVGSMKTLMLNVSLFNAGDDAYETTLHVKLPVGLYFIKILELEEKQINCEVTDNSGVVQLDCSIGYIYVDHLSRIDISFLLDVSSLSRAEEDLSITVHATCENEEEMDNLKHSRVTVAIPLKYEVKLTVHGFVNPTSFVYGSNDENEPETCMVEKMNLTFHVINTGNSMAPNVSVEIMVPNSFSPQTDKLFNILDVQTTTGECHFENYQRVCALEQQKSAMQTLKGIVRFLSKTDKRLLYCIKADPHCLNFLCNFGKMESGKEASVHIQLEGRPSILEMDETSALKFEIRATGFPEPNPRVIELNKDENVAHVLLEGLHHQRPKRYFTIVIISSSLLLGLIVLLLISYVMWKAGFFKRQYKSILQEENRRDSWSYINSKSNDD
T1 sequence (P05556 21-798): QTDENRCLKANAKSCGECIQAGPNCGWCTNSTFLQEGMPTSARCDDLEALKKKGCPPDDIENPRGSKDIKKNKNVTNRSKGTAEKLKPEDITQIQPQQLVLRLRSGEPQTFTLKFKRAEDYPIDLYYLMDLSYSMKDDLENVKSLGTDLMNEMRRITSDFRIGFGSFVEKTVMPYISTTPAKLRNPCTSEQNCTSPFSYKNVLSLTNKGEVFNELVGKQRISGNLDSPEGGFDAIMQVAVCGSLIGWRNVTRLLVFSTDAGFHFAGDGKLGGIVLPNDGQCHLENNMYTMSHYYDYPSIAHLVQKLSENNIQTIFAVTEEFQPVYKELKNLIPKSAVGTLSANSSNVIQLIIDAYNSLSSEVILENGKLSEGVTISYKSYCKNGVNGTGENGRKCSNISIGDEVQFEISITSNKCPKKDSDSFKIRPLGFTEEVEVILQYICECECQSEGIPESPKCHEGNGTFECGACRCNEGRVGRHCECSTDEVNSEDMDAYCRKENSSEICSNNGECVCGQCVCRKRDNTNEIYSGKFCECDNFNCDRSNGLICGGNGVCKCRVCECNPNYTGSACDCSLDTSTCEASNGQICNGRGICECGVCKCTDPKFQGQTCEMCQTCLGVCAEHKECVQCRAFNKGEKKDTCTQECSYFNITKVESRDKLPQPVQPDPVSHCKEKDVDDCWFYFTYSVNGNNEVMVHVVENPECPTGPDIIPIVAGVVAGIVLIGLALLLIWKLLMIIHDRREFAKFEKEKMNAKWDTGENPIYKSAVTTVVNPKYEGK
The test can be described thus: VCAM-1/α4β1 integrin binding inhibitory activity evaluation test (Jurkat cells binding to VCAM-1/Fc). It is filed as cell-based. The settings on record: recombinant human VCAM-1/Fc. As to the method: (1) VCAM-1/α4β1 Integrin Binding Inhibitory Activity Evaluation Test
Each test substance was measured in terms of an ability to inhibit the VCAM-1 binding of a human T cell line, namely, a cell line Jurkat, which is known to express α4β1 integrin.
A solution of recombinant human VCAM-1/Fc (R&D Systems, Inc.) (1 μg/mL) diluted with a buffer A (carbonate buffer, pH 9.6) was placed in an amount of 50 μL/well in a 96-well microtiter plate, followed by incubation at 4° C. overnight. After the plate was washed with PBS once, 150 μL/well of Block Ace (Snow Brand Milk Products Co., Ltd.) was added, followed by incubation at room temperature for 2 hours. After removal, the plate was washed with PBS once.
Then, 100 μL of the Jurkat cells (2×10^6 cells/mL) and 100 μL of the test substance at each of various concentrations diluted with a binding buffer (DMEM containing 40 mM HEPES, 0.2% BSA, and 4 mM MnCl2) were added to the plate coated with the VCAM-1/Fc (5×10^5 cells/well), followed by incubation at 30° C. for 15 to 60 minutes. After the cells were bound to the wells, the plate was washed with PBS to remove unbound cells. A buffer C (PBS containing 1.5% Triton X-100) was added in an amount 50 μL/well to the plate to lyse the bound Jurkat cells. After 30 μL of a substrate buffer (Promega, CytoTox 96 Non-Radioactive Cytotoxicity Assay) was added to 30 μL of the cell lysate, a reaction was allowed to proceed at room temperature in the dark for 30 minutes. After 30 μL of a stop solution (Promega, CytoTox 96 Non-Radioactive Cytotoxicity Assay) was added to each, and then an absorbance at 490 nm was measured using a plate reader. The absorbance obtained here represents a detection result of an activity of lactate dehydrogenase (LDH) eluted in the supernatant of each well, that is, the absorbance is proportional to the number of Jurkat cells bound to the VCAM-1 and thus remaining on the plate. The test was performed in duplicate. Provided that the absorbance of a well containing no test substance was 100%, a cell binding rate with the test substance at each of the various concentrations was figured out, and a concentration IC50 which brought about 50% binding inhibition was calculated.
For the molecule `COC1(C(=O)Nc2ccc(S(=O)(=O)Nc3cc(F)c(C(=O)N[C@@H](Cc4ccc(-n5c(=O)c(C)c(C)n(C)c5=O)cc4)C(=O)O)cc3F)cc2)CC1` [Compound A17], the IC50 came to 1300 nM.
On to `COc1cc2c(=O)n(-c3ccc(C[C@H](NC(=O)c4cc(F)c(NS(=O)(=O)c5ccc(NC(=O)C(C)(C)C)cc5)cc4F)C(=O)O)cc3)c(=O)n(C)c2cn1` [Compound A36], for which the 50% inhibitory concentration (IC50) came to 1800 nM.
For `Cc1c(C)n(C)c(=O)n(-c2ccc(C[C@H](NC(=O)c3cc(F)c(NS(=O)(=O)c4ccc(NC(=O)C5(C(F)(F)F)CC5)cc4)cc3F)C(=O)O)cc2)c1=O` [Compound A20] the value was 850 nM.
Then `Cc1c(C)n(C)c(=O)n(-c2ccc(C[C@H](NC(=O)c3cc(F)c(NS(=O)(=O)c4ccc(NC(=O)C5(O)CC5)cc4)cc3F)C(=O)O)cc2)c1=O` [Compound A22], with 830 nM; and `Cc1c(C)n(C)c(=O)n(-c2ccc(C[C@H](NC(=O)c3cc(F)c(NS(=O)(=O)c4ccc(NC(=O)C(C)(C)CO)cc4)cc3F)C(=O)O)cc2)c1=O` [Compound A21], with 680 nM; and `Cc1cn(C)c(=O)n(-c2ccc(C[C@H](NC(=O)c3cc(F)c(NS(=O)(=O)c4ccc(NC(=O)C5(C(F)(F)F)CC5)cc4)cc3F)C(=O)O)cn2)c1=O` [Compound A56], with 19000 nM.
As for `Cn1c(=O)n(-c2ccc(C[C@H](NC(=O)c3cc(F)c(NS(=O)(=O)c4ccc(NC(=O)C5CCNCC5)cc4)cc3F)C(=O)O)cc2)c(=O)c2ccncc21` [Compound A6, (2S)-2-[[2,5-difluoro-4-[[4-(piperidine-4-carbonylamino)phenyl]sulfonylamino]benzoyl]amino]-3-[4-(1-methyl-2,4-dioxo-pyrido[3,4-d]pyrimidin-3-yl)phenyl]propanoic acid], the IC50 worked out at 890 nM.
Turning to `CCC(CC)C(=O)Nc1ccc(S(=O)(=O)Nc2cc(F)c(C(=O)N[C@@H](Cc3ccc(-n4c(=O)c5ccncc5n(C)c4=O)cc3)C(=O)O)cc2F)cc1` [Compound A3], the IC50 stood at 2400 nM.
For the molecule `Cc1cn(C)c(=O)n(-c2ccc(C[C@H](NC(=O)c3cc(F)c(NS(=O)(=O)c4cc5cc(NC(=O)C(C)(C)C)ccc5[nH]4)cc3F)C(=O)O)cn2)c1=O` [Compound A76], the IC50 is 25000 nM.
Then `Cn1cnc2c1c(=O)n(-c1ccc(C[C@H](NC(=O)c3cc(F)c(NS(=O)(=O)c4ccc(NC(=O)C(C)(C)C)cc4)cc3F)C(=O)O)cc1)c(=O)n2C` [Compound A43], with 1200 nM.
For `Cc1c(C)n(C)c(=O)n(-c2ccc(C[C@H](NC(=O)c3cc(F)c(NS(=O)(=O)c4cc(NC(=O)C(C)(C)C)cs4)cc3F)C(=O)O)cc2)c1=O` [Compound A11] the value was 3200 nM.
Turning to `Cn1ccc(=O)n(-c2ccc(C[C@H](NC(=O)c3cc(F)c(NS(=O)(=O)c4ccc(NC(=O)C(C)(C)CO)cc4)cc3F)C(=O)O)cn2)c1=O` [Compound A62], the IC50 is over 31200 nM.
Then `CCC(CC)C(=O)Nc1ccc(S(=O)(=O)Nc2cc(F)c(C(=O)N[C@@H](Cc3ccc(-n4c(=O)c(C)c(C)n(C)c4=O)cc3)C(=O)O)cc2F)cc1` [Compound A4], with 2500 nM; and `COC1(C(=O)Nc2ccc(S(=O)(=O)Nc3cc(F)c(C(=O)N[C@@H](Cc4ccc(-n5c(=O)c6ccncc6n(C)c5=O)cc4)C(=O)O)cc3F)cc2)CC1` [Compound A16], with 1200 nM.
For `Cc1c(C)n(C)c(=O)n(-c2ccc(C[C@H](NC(=O)c3cc(F)c(NS(=O)(=O)c4cccc(NC(=O)C(C)(C)C)c4)cc3F)C(=O)O)cn2)c1=O` [Compound A50] the value was 7100 nM; for `Cc1cn(C)c(=O)n(-c2ccc(C[C@H](NC(=O)c3cc(F)c(NS(=O)(=O)c4c[nH]c5cc(NC(=O)C(C)(C)C)ccc45)cc3F)C(=O)O)cn2)c1=O` [Compound A77], 7100 nM.
For `Cn1c(=O)n(-c2ccc(C[C@H](NC(=O)c3cc(F)c(NS(=O)(=O)c4ccc(NC(=O)C(C)(C)C)s4)cc3F)C(=O)O)cc2)c(=O)c2ccncc21` [Compound A9] the value was 160 nM.

For orientation: IC50 means the midpoint of a concentration-inhibition curve.
